Earlier results in patent publication US8394428B1, “Formulations and methods for preventing eyebrow hair loss” (RMV Trademarks, LLC, priority 2010, dated 2013).

Tested on: hair loss in human scalp
Settings: topical application, after administration of cyclophosphamide

## C=C1/C(=C\C=C2/CCC[C@]3(C)[C@@H]([C@H](C)CCCC(C)(C)O)CC[C@@H]23)C[C@@H](O)C[C@@H]1O [1,25-dihydroxyvitamin D3]
  Prevention or retardation of hair loss: failed to prevent or retard hair loss
